Data from patent US5461154A, “Intermediate and process for making” (Eli Lilly and Company, priority 1994, dated 1995).

These compounds were tested against T1, HIV-1 protease (Human immunodeficiency virus type 1 group M subtype B, UniProt P04585) (assay: biochemical). Details: not given.
T1 construct: Purified HIV-1 protease was obtained as described above; made in house; host or cells: E. coli K12 L507/pHP10D (NRRL B-18560)
Experimental: A culture of E. coli K12 L507/pHP10D was grown to mid-log phase at 32° C. in LB media containing 12.5 μg/mL tetracycline. The cultivation temperature was quickly elevated to 40° C. to induce gene expression, and the cells were allowed to grow for 2.5 hours at this temperature before the culture was quickly chilled on ice. The cells were centrifuged and the cell pellet was resuspended in 20 mL of 50 mmol MES buffer (pH 6.0) containing 1 mmol EDTA, 1 mmol DTT, 1 mmol PMSF and 10% glycerol ("Buffer A"). Cells were lysed by sonication using a Fischer Model 300 Dismembrator and a microtip probe. Following centrifugation at 27,000×g, the supernatant was diluted to a total volume of 60 mL with Buffer A and loaded onto a 2.0×19 cm QAE-Sepharose column (1 mL/min, 4° C.), that had been equilibrated in Buffer A. The column was washed isocratically for 180 min and then eluted with a gradient eluent of 0-1.0M aqueous sodium chloride in Buffer A over 120 min. Enzymatic activity was measured by HPLC using the synthetic peptide Ser-Gln-Asn-Tyr-Pro-Ile-Val as described in Margolin et al., Biochem. Biophys. Res. Common., 167, 554-560 (1990); the production of the p1 peptide (Ser-Gln-Asn-Tyr) was measured.
The active fractions were combined, adjusted to […] 1.2M in ammonium sulfate, and applied to a 2.0×18 cm hexyl agarose column that had been equilibrated in Buffer A containing 1.2M ammonium sulfate. The sample was loaded at a flow rate of 1 mL/min at 4° C., washed with the equilibration buffer for 240 min (1 mL/min) and then eluted using a reverse linear gradient of 1.2-0M ammonium sulfate in Buffer A for 120 min at the same flow rate. The column was then washed isocratically in Buffer A for 120 min.
The active fractions were combined, concentrated to 10 mL using an Amicon stirred cell with a YM-10 membrane and then applied to a MonoS cation exchange column (1.0×10 cm) that had been equilibrated in Buffer A. The sample was loaded at a flow rate of 1 mL/min at 25° C. After washing isocratically for 30 min, the protease was eluted using a linear gradient of 0-0.45M aqueous sodium chloride in Buffer A over 40 min. The column was washed isocratically in Buffer A containing 0.45M aqueous sodium chloride for 30 minutes.
The active fractions were combined and concentrated to 200 μL using an Amicon stirred cell and a YM-10 membrane and then the protease was applied to a Superose 6 size exclusion column equilibrated in Buffer A containing 0.1M aqueous sodium chloride.
E. Fluorescence HIV-1 Protease Inhibitor Assay
The following buffers and solutions are used in the Fluorescence HIV-1 Protease Inhibitor Assay:
To each well of a round bottom, 96-well plate is added 20 μL of the Enzyme Solution followed by 10 μL of the compound to be evaluated in a 20% aqueous dimethylsulfoxide solution. Purified HIV-1 protease was obtained as described above. The resulting solution is incubated for one hour at room temperature and then 20 μL of a solution containing the substrate, prepared above, in MES-ALB buffer (1.5 μL/mL) is added to each well. The solutions are then incubated for 16 hours at room temperature and then each well is diluted with 150 μL of MES-ALB buffer.
To each well of a second round bottom, 96-well Pandex plate is added 25 uL of the Avidin Coated Beads Solution. Then, to each well is added 25 μL of the diluted incubation solutions, prepared above. The solutions are mixed thoroughly and the plates are loaded into a Pandex® machine, washed, evacuated and read. Sample detection was performed by excitation at 485 nm, reading the resulting epifluorescence at 535 nm.

Structure (SMILES)	IC50 [nM]
Cc1c(O)cccc1C(=O)N[C@@H](Cc1ccccc1)[C@H](O)CN1CCC[C@H]1C(=O)NC(C)(C)C [Example 4, [2S-(2R*,2'S*,3'R*)]-1-[2'-Hydroxy-3'-phenylmethyl-4'-aza-5'-oxo-5'-(2"-methyl-3"-hydroxyphenyl)pentyl]pyrrolidine-2-N-t-butylcarboxamide]	3050
Cc1c(O)cccc1C(=O)N[C@@H](Cc1ccccc1)[C@H](O)CN1CCCC[C@H]1C(=O)NC(C)(C)C [Example 6, [2S-(2R*,2'S*,3'R*)]-1-[2'-Hydroxy-3'-phenylmethyl-4'-aza-5'-oxo-5'-(2"-methyl-3"-hydroxyphenyl)pentyl]piperidine-2-N-t-butylcarboxamide]	1070

Same assay, conditions: read-out: Fluorescence Assay IC50 (converted)

IC50 [nM]	Structure (SMILES)
25.2	Cc1ccc2ncccc2c1C(=O)N[C@@H](CSc1ccccc1)[C@H](O)CN1C[C@H]2CCCC[C@H]2C[C@H]1C(=O)NC(C)(C)C [Example 38]
53.7	Cc1cnccc1C(=O)N[C@@H](CSc1ccccc1)[C@H](O)CN1CCN(Cc2cccnc2)C[C@H]1C(=O)NC(C)(C)C [Example 35, [2S-(2R*,2'S*,3'S*)]-1-[2'-Hydroxy-3'-phenylthiomethyl-4'-aza-5'-oxo-5'-[3"-methyl-pyrid-4"-yl)]pentyl]-4-(pyrid-3'"-ylmethyl)piperazine-2-N-t-butylcarboxamide]
7.18	CC(C)(C)NC(=O)[C@@H]1CN(Cc2cccnc2)CCN1C[C@@H](O)[C@H](CSc1ccccc1)NC(=O)c1cccc2ncccc12 [Example 34, [2S-(2R*,2'S*,3'S*)]-1-[2'-Hydroxy-3'-phenylthiomethyl-4'-aza-5'-oxo-5'-(quinolin-5"-yl)pentyl]-4-(pyrid-3'"-ylmethyl)piperazine-2-N-t-butylcarboxamide]
613	Cc1c(C(=O)N[C@@H](Cc2ccccc2)[C@H](O)CN2C[C@H]3CCCC[C@H]3C[C@H]2C(=O)NC(C)(C)C)cc[nH]c1=O [Example 16, [3S-(3R*,4aR*,8aR*,2'S*,3'R*)]-2-[2'-Hydroxy-3-phenylmethyl-4'-aza-5'-oxo-5'-(2"-oxo-3"-methyl-pyrid-4"-yl)pentyl]decahydroisoquinoline-3-N-t-butylcarboxamide]
176	CC(C)(C)NC(=O)[C@@H]1C[C@@H]2CCCC[C@@H]2CN1C[C@@H](O)[C@H](Cc1ccccc1)NC(=O)c1cccc(Cl)c1Cl [Example 14, [3S-(3R*,4aR*,8aR*,2'S*,3R*)]-2-[2'-Hydroxy-3'-phenylmethyl-4'-aza-5'-oxo-5'-(2",3"-dichlorophenyl)pentyl]decahydroisoquinoline-3-N-t-butylcarboxamide]
455	CC(C)(C)NC(=O)[C@@H]1C[C@@H]2CCCC[C@@H]2CN1C[C@@H](O)[C@H](Cc1ccccc1)NC(=O)c1c(Cl)ccc(O)c1Cl [Example 17, [3S-(3R*,4aR*,8aR*,2'S*,3'R*)]-2-[2'-Hydroxy-3'-phenylmethyl-4'-aza-5'-oxo-5'-(2",6"-dichloro-3"-hydroxyphenyl)pentyl]decahydroisoquinoline-3-N-t-butylcarboxamide]

Same assay, conditions: read-out: Fluorescence Assay IC50; […]; room temperature, 16 hours with substrate

Structure (SMILES)	IC50 [nM]
Cc1c(NS(C)(=O)=O)cccc1C(=O)N[C@@H](Cc1ccccc1)[C@H](O)CN1C[C@H]2CCCC[C@H]2C[C@H]1C(=O)NC(C)(C)C [Example 36, [3S-(3R*,4aR*,8aR*,2'S*,3'S*)]-2-[2'-Hydroxy-3'-phenylmethyl-4'-aza-5'-oxo-5'-[2"-methyl-3"-N-(methylsulfonyl)amino-phenyl)]pentyl]decahydroisoquinoline-3-N-t-butylcarboxamide]	101
